From ChEMBL document CHEMBL1136950, “Thiopyrophosphoantigens: solid-phase synthesis and in vitro characterization of a new class of Vgamma9 Vdelta2 T cells activators” (J Med Chem, 2009)
The source made the active and inactive calls. The calls are words filed in the database; no cut-off is given here.

Key:
T-cell [1] = test: Immunostimulatory activity in human Vgamma9/Vdelta2 T cells assessed as TNFalpha production after 12 hrs by ELISA; type: functional, cell-based
T-cell [2] = test: Immunostimulatory activity in human Vgamma9/Vdelta2 T cells assessed as expansion induces at 20 uM; type: functional, cell-based
[3] = Stability in presence alkaline phosphatase after 30 mins by HPLC-MS analysis
[4] = Stability in presence alkaline phosphatase after 20 mins by HPLC-MS analysis
[5] = Stability in presence of alkaline phosphatase; conditions: isolated protein
[6] = Stability in presence alkaline phosphatase after 60 mins by HPLC-MS analysis

With CC1(CCSP(=O)(O)OP(=O)(O)O)COC1 the EC50 (T-cell [1]) was 14 µM.
O=P(O)(O)OP(=O)(O)SCCOC1CCCCO1 (stereo not drawn) showed an EC50 (T-cell [1]) of 12 µM.
For O=P(O)(O)OP(=O)(O)SCCOCCCl, the EC50 (T-cell [1]) was 0.39 µM.
With C/C(=C\CSP(=O)(O)OP(=O)(O)O)CO the Activity (T-cell [2]) was “Active” and the EC50 (T-cell [1]) was 0.0048 µM.
CC(O)CCSP(=O)(O)OP(=O)(O)O (stereo not drawn) gave an EC50 (T-cell [1]) of 75 µM.
For C=CCCCCCSP(=O)(O)OP(=O)(O)O, the EC50 (T-cell [1]) was 6.3 µM.
For CCSCCCSP(=O)(O)OP(=O)(O)O, the EC50 (T-cell [1]) was 0.055 µM.
N#CCCCCSP(=O)(O)OP(=O)(O)O showed an EC50 (T-cell [1]) of 1 µM.
With O=P(O)(O)OP(=O)(O)SCc1ccccc1 the EC50 (T-cell [1]) was 55 µM.
In the case of O=P(O)(O)OP(=O)(O)SCCC1OCCO1, the EC50 (T-cell [1]) is reported as 0.056 µM.
O=P(O)(O)OP(=O)(O)SCCCCCl gave an EC50 (T-cell [1]) of 100 µM.
Work on C=C(C)CCSP(=O)([O-])OP(=O)([O-])[O-].[Na+].[Na+].[Na+] yielded a remaining at 0.5 h [3] of 54%, a remaining at 20 min [4] of 48% and an EC50 (T-cell [1]) of 3.75 µM. It also gave a Stability [5] of 94% and a remaining at 1 h [6] of 27%.
O=P(O)(O)OP(=O)(O)SCCCCF showed an EC50 (T-cell [1]) of 10.8 µM.
